# Test results: patent US7718636B2, “Use of 2-methylene-19-nor-20(S)-1alpha,25dihydroxy vitamin d3 to inhibit mammary tumor” (Wisconsin Alumni Research Foundation, priority 2003, dated 2010)
# Experiments:
# calcium from bone = settings: compared to 1α,25-dihydroxyvitamin D3; cited from earlier work
# [1] = Body weight in aged female rats; type: in vivo; settings: at 7-1/2 months, 5 or 7 ng 2-MD/kg orally each day
# Excerpt: (§1) 48 retired female breeder rats of 12 months of age were obtained from the Harlan Sprague-Dawley Company. Upon arrival, the animals were ovariectomized or sham-operated. These animals were housed in individual hanging wire cages and provided water ad libitum. Food consumption was restricted to 19-21 g/day. Animals were maintained on a purified diet described by Suda et al (J. Nutr. 1970) which contained 0.47% calcium and 0.3% phosphorus. In addition, these animals received supplements of vitamin A, E, D, and K as described in the Suda paper. One half of the animals received each day 0.1 ml of Wesson Oil while the remaining one-half of the animals received orally the 0.1 ml of Wesson Oil containing 5 or 7 ng/2-MD/kg body weight. The animals were monitored weekly for body weight, general health and survival. These animals were followed for 7.5 months.
# [2] = system: aged, ovariectomized female rats; experiment: Survival of aged ovariectomized female rats given 2-MD orally each day for 7.5 months; type: in vivo, rat
# Description: Thus, the experiment was carried out as follows:
# as §1
structure (smiles),measurement,setting,value
"C=C1[C@H](O)CC(=C/C=C2\CCC[C@]3(C)[C@@H]([C@@H](C)CCCC(C)(C)O)CC[C@@H]23)C[C@H]1O [2-MD, 2-methylene-19-nor-20(S)-1α,25-dihydroxyvitamin D3]",ability to mobilize calcium from bone,calcium from bone,very high activity
same,Body Weight Final,[1],382 ± 10 g
same,survival and general health over the entire period,"[2]; 5 or 7 ng 2-MD/kg body weight orally each day, 7.5 months",survived the entire period and were in good health
same,survival rate,"[2]; aged, ovariectomized female rats, oral 2-MD each day, 7.5 months",100%
same,Survival Ratio #premature deaths/total # animals,"[2]; ovariectomized or sham-operated retired female breeder rats, 12 months of age, 5 or 7 ng 2-MD/kg body weight orally each day in Wesson Oil, followed for 7.5 months",0/24
